The values below come from patent publication US11609221B2, “Method for detecting the presence of a contaminant in a liquid” (priority 2017, dated 2023).

Data set [1] has as its system benthic aquatic macroinvertebrates. Briefly: Toximeter locomotor index monitoring of benthic aquatic macroinvertebrates during contamination episodes. The format is in vivo, Gammarus fossarum, Erpobdella testacea, Radix auricularia. Conditions: 100 μg·L^−1, contamination episodes of 20-24 h, even after several episodes; FIG. 3. As to the method:
For the purposes of the present invention, “locomotor index” corresponds to an average distance calculated according to the study context (field or laboratory) over the 10% to 80% of the lowest values of individual distances travelled. The locomotor index is the average of these shortest distances. This locomotor index is calculated on an integration time step that can be chosen between 2 and 120 minutes. The values of distances travelled are squared before the index is calculated, so the locomotive index is expressed in mm^2/unit of time.
In the examples, only benthic aquatic macroinvertebrates calibrated in terms of size, sex, non-parasitized, from a single population and housing for two weeks in the laboratory are shown. The benthic aquatic macroinvertebrates are placed in a cage under camera monitoring where 16 individuals are placed alone in a volume of 50 mL of water.
The cage is made of neutral materials (polypropylene) and without the use of toxic products (no glue). These cages (FIG. 1) are connected to a pre-bubbled, thermo-regulated and filtered liquid supply and then circulate in the chamber that receives the effluent at a flow rate of 6 L/h. […]

The test system of the next data set is Daphnia. Conditions: after 48 h exposure; cited from earlier work.

Converted amounts (≈) assume the structure as drawn. Bounds are passed on as bounds.

In the case of `CNC(=O)ON=C(C)SC` [methomyl], the “time to detect a toxicity of the product (locomotor index)” value in data set [1] was not above 3 h. For the same compound, the “LC50 in Daphnia” value in the data set on Daphnia is 0.028 µg/mL (≈ 0.173 µM).
